Measurements: US8466113B2, “4-isopropylphenyl glucitol compounds as SGLT1 inhibitors” (Taisho Pharmaceutical Co., Ltd., priority 2009, dated 2013)

Tests used:
Type in all cases: cell-based
[1] = target: T1, human SGLT2 protein modified to have LeuGluSerArgGlyProVal added to the carboxy-terminal final residue (Homo sapiens, UniProt P31639); assay: Inhibition test for sodium-dependent sugar uptake in CHO-K1 cells stably expressing human SGLT2, Method A; details: uptake 37° C., 60 minutes, read-out: IC50 for hSGLT2 Method A
T1 construct: expressed in transfected cells; host or cells: CHO-K1
T1 sequence (P31639 with tags, fused parts or gaps): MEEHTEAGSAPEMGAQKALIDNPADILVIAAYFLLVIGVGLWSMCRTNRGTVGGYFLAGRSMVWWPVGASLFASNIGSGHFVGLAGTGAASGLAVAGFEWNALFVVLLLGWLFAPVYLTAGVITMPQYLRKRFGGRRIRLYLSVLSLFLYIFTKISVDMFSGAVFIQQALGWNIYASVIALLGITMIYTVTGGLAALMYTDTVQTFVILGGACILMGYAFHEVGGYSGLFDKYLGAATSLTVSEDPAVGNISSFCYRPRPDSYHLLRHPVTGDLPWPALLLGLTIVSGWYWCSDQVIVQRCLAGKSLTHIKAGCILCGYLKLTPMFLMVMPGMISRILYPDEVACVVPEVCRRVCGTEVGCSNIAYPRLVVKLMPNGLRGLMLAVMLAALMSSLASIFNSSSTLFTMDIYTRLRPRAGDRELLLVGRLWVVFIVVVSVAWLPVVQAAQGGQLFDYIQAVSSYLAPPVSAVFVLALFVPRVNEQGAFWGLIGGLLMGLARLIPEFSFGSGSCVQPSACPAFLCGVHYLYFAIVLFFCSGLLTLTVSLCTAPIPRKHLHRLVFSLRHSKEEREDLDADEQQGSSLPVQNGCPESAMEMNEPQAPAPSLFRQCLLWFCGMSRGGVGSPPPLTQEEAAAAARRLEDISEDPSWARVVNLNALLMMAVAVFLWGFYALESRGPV
Method: (§1) (2) Creation of CHO-K1 Cells Stably Expressing Human SGLT2
Method A (described in WO2007/136116): A plasmid vector expressing human SGLT2 protein modified to have LeuGluSerArgGlyProVal added to the carboxy-terminal final residue was transfected into CHO-K1 cells using lipofectamine 2000 (Invitrogen). The cells were cultured in the presence of 500 μg/mL hygromycin B to select resistant strains, followed by screening in the system shown below using sugar uptake capacity as an indicator to obtain SGLT2-expressing cells.
(§2) (3) Inhibition Test for Sodium-Dependent Sugar Uptake in Stably Expressing Cells
(§3) The stably expressing cells prepared above were used in the following test.
(§4) Pretreatment buffer (140 mM choline chloride, 2 mM KCl, 1 mM CaCl2, 1 mM MgCl2, 10 mM HEPES/5 mM Tris, pH 7.4) was added in a volume of 200 μL to the cells stably expressing SGLT1 or 2 mL for Method A and 200 μL for Method B to the cells stably expressing SGLT2, followed by incubation for 20 minutes. The pretreatment buffer was removed and replaced by uptake buffer containing a test compound (1 mM methyl α-D-glucopyranoside (containing [^14C]methyl α-D-glucopyranoside), 140 mM NaCl, 2 mM KCl, 1 mM CaCl2, 1 mM MgCl2, 10 mM HEPES/5 mM Tris, pH 7.4) in a volume of 75 μL for SGLT1 and SGLT2 in Method B or 200 μL for SGLT2 in Method A. Uptake reaction was performed at 37° C. for 30 minutes (SGLT1) or 60 minutes (SGLT2). After the reaction, the cells were washed twice with washing buffer (10 mM methyl α-D-glucopyranoside, 140 mM choline chloride, 2 mM KCl, 1 mM CaCl2, 1 mM MgCl2, 10 mM HEPES/5 mM Tris, pH 7.4) in a volume of 200 μL for SGLT1 and SGLT2 in Method B or 2 mL for SGLT2 in Method A, and then dissolved in a 0.25 M NaOH solution (75 μL for SGLT1 and SGLT2 in Method B or 400 μL for SGLT2 in Method A). A liquid scintillator (Perkin Elmer) was added and mixed well with each sample, followed by measurement of radioactivity using a β-ray analyzer. For the control group, uptake buffer containing no test compound was prepared. Moreover, another uptake buffer containing choline chloride instead of NaCl was also prepared for basal uptake.
(§5) For determination of IC50 values, test compounds prepared at 6 appropriate concentrations were used and their concentrations required for 50% inhibition of the amount of sugar uptake (IC50 values) were calculated relative to the amount of sugar uptake in the control group (100%).

[2] = target: T2, human SGLT2 (Homo sapiens, UniProt P31639); assay: Inhibition test for sodium-dependent sugar uptake in CHO-K1 cells stably expressing human SGLT2, Method B; details: uptake 37° C., 60 minutes, read-out: IC50 for hSGLT2 Method B
T2 construct: expressed in transfected cells; host or cells: CHO-K1
T2 sequence (P31639 1-672): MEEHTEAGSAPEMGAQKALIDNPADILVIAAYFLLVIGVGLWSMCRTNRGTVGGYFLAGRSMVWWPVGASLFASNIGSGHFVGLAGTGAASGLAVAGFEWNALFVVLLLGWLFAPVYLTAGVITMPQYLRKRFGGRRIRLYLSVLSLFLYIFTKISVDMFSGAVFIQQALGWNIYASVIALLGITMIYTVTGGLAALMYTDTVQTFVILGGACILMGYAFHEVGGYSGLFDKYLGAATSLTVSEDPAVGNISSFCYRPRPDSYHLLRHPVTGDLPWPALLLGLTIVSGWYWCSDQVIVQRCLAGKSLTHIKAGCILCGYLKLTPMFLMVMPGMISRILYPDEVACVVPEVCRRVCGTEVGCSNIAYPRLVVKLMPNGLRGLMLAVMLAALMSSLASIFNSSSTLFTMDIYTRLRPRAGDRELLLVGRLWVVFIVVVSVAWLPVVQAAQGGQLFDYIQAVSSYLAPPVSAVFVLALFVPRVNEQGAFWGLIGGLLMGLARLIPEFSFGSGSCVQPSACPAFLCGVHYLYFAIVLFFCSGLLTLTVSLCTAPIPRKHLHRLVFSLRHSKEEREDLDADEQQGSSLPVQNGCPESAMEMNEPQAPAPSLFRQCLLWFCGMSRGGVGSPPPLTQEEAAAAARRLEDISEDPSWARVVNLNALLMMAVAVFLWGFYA
Method: as §1
(§6) Method B: A plasmid vector expressing human SGLT2 protein was transfected into CHO-K1 cells using lipofectamine LTX (Invitrogen). The cells were cultured in the presence of 1000 μg/mL geneticin to select resistant strains, followed by screening in the system shown below using sugar uptake capacity as an indicator to obtain SGLT2-expressing cells.
as §2, §3, §4, §5

[3] = target: T3, human SGLT1 (Homo sapiens, UniProt P13866); assay: Inhibition test for sodium-dependent sugar uptake in CHO-K1 cells stably expressing human SGLT1; details: [14C]methyl α-D-glucopyranoside uptake, 37° C., 30 minutes, read-out: IC50 for hSGLT1
T3 construct: expressed in transfected cells; host or cells: CHO-K1
T3 sequence (P13866 1-664): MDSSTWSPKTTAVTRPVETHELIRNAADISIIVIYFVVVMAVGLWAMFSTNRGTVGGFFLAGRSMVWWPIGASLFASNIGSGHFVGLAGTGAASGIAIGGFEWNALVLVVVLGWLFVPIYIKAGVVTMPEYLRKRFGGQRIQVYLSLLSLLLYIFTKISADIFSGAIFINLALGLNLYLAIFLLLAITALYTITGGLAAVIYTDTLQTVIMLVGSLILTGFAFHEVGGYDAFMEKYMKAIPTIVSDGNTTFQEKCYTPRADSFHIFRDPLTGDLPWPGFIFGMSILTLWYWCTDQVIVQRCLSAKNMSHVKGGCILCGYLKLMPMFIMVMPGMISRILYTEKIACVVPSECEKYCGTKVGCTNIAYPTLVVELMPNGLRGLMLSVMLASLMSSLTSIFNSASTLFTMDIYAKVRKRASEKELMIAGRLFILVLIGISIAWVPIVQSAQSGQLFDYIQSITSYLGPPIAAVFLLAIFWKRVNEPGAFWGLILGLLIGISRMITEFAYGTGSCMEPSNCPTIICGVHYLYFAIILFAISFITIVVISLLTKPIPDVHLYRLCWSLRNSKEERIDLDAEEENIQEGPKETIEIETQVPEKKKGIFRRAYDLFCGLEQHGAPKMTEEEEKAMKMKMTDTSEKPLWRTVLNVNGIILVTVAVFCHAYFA
Method: (1) Creation of CHO-K1 Cells Stably Expressing Human SGLT1
as §6, with “A” for “Method B: A”, “SGLT1” for “SGLT2”, “2000” for “LTX”, “500” for “1000”, “SGLT1-expressing” for “SGLT2-expressing”
as §2, §3, §4, §5

SMILES | IC50 [1] [µM] | IC50 [2] [nM] | IC50 [3] [nM]
COc1cc(C(C)C)c(Cc2ccc(/C=C/C(C)(C)C(=O)NC(C)(C)C(=O)NCCN(C)C)cc2C)cc1[C@@H]1O[C@H](CO)[C@@H](O)[C@H](O)[C@H]1O [Example 7-2] | 11.1 | – | 46
COc1cc(C(C)C)c(Cc2ccc(/C=C/C(C)(C)C(=O)NC(C)(C)C(=O)NCCN)cc2C)cc1[C@@H]1O[C@H](CO)[C@@H](O)[C@H](O)[C@H]1O [Example 8-3] | 15.7 | 476 | 50
COc1cc(C(C)C)c(Cc2ccc(/C=C/C(C)(C)C(=O)NC(C)(C)C(=O)N3CCNCC3)cc2C)cc1[C@@H]1O[C@H](CO)[C@@H](O)[C@H](O)[C@H]1O [Example 9-2] | 7.23 | 200 | 34
COc1cc(C(C)C)c(Cc2ccc(/C=C/C(C)(C)C(=O)NC(C)(C)C(=O)N3CCN(C)CC3)cc2C)cc1[C@@H]1O[C@H](CO)[C@@H](O)[C@H](O)[C@H]1O [Example 10-2] | 14.9 | 281 | 55
CCN1CCN(C(=O)C(C)(C)NC(=O)C(C)(C)/C=C/c2ccc(Cc3cc([C@@H]4O[C@H](CO)[C@@H](O)[C@H](O)[C@H]4O)c(OC)cc3C(C)C)c(C)c2)CC1 [Example 11-2] | 9.75 | 546 | 59
COc1cc(C(C)C)c(Cc2ccc(/C=C/C(C)(C)C(=O)NC(C)(C)C(=O)N3CCC(N(C)C)CC3)cc2C)cc1[C@@H]1O[C@H](CO)[C@@H](O)[C@H](O)[C@H]1O [Example 12-2] | 4.95 | 113 | 70
COc1cc(C(C)C)c(Cc2ccc(/C=C/C(C)(C)C(=O)NC(C)(C)C(=O)NC3CCNCC3)cc2C)cc1[C@@H]1O[C@H](CO)[C@@H](O)[C@H](O)[C@H]1O [Example 14-2] | 2.39 | 82 | 72

Stronger by IC50 [1], values ahead:

IC50 [1] [µM] | IC50 [2] [nM] | IC50 [3] [nM] | SMILES
0.971 | 28 | 30 | Cc1cc(/C=C/C(C)(C)C(=O)NC(C)(C)C(=O)N2CCNCC2)ccc1Cc1cc([C@@H]2O[C@H](CO)[C@@H](O)[C@H](O)[C@H]2O)c(O)cc1C(C)C [Example 2-2]
1.72 | 81 | 35 | Cc1cc(/C=C/C(C)(C)C(=O)NC(C)(C)C(=O)N2CCN(C)CC2)ccc1Cc1cc([C@@H]2O[C@H](CO)[C@@H](O)[C@H](O)[C@H]2O)c(O)cc1C(C)C [Example 3-2]
1.64 | 76 | 46 | CCN1CCN(C(=O)C(C)(C)NC(=O)C(C)(C)/C=C/c2ccc(Cc3cc([C@@H]4O[C@H](CO)[C@@H](O)[C@H](O)[C@H]4O)c(O)cc3C(C)C)c(C)c2)CC1 [Example 4-2]
1.02 | 17 | 38 | COc1cc(C(C)C)c(Cc2ccc(/C=C/C(C)(C)C(=O)NC(C)(C)C(=O)N3CCNCC3)cc2)cc1[C@@H]1O[C@H](CO)[C@@H](O)[C@H](O)[C@H]1O [Example 16-2]
0.979 | 26 | 42 | COc1cc(C(C)C)c(Cc2ccc(/C=C/C(C)(C)C(=O)NC(C)(C)C(=O)N3CCN(C)CC3)cc2)cc1[C@@H]1O[C@H](CO)[C@@H](O)[C@H](O)[C@H]1O [Example 17-2]
